Test system: GBS laboratory strains
Assay: MBC90:MIC90 ratio method of determining antibiotic tolerance
Type: cell-based, Group B Streptococcus
Settings: for Phenotype: by MBC:MIC ratio; for MBC: 24 h, ≧90% non-viable cells, plate counts after 24 h antibiotic; for MIC: ≧90% growth-inhibited, OD600
Experimental: The inventors ascertained the incidence of antibiotic tolerance in GBS clinical isolates collected from cervicovaginal-rectal swabs, by investigating cell wall inhibitors used to eliminate GBS colonization in pregnant women before delivery as stated by the CDC guidelines. A ratio of the minimum bactericidal concentration (MBC) over minimum inhibitory concentration (MIC) after 24 h of antibiotic incubation or by determining quantitative kill curves has been used to define antibiotic tolerance previously.
The MBC:MIC ratio was calculated for laboratory strains using three β-lactam antibiotics (Penicillin G, Ampicillin, and Cefazolin) and a glycopeptide antibiotic (Vancomycin) (Table 1). Early-log phase cultures of GBS were treated with the individual antibiotics at a concentration of 0.25 to 512×MIC90. The optical density (OD600) of antibiotic treated cultures was used to determine the MIC90 after 24 h and a cell count was used to determine their MBC90. Susceptible, tolerant and intermediate strains were defined by their MBC:MIC ratio of ≦2:1, ≧32:1 and 4:1-16:1 respectively. […] The ratios characterized GBS strains A909 and 2603V/R as Susceptible, O90R as Tolerant, and NEM316 as Intermediate to Penicillin, Ampicillin, and Cefazolin. All four strains were susceptible to Vancomycin.
(I) Bacterial Strains and Culture Conditions. GBS strains A909 (serotype IA), 515 (serotype IA), NEM316 (serotype III), COHI (serotype III), 2603V/R (serotype V) and O90R (non-typable) were used in this study. E. coli Top10 cells were used for the recombination experiments. GBS was cultured in Todd Hewitt broth (THB) or Tryptic Soy 5% sheep blood (TS) media and E. coli in Luria-broth (LB) medium or agar. Antibiotics were used at the following concentrations: for GBS—penicillin G (MIC90 0.06 μg ml^−1), ampicillin (MIC90 0.12 μg ml^−1), vancomycin (MIC90 2 μg ml^−1), cefazolin (MIC90 1 μg ml^−1) and chloramphenicol (5 μg ml^−1); for E. coli—ampicillin (50 μg ml^−1) and chloramphenicol (5 μg ml^−1). Both GBS and E. coli cultures were grown at 37° C. (II) Tolerance Using the MBC:MIC Ratio Method. Three GBS laboratory strains (i.e., A909, NEM316, and O90R) were cultured overnight for 18 h at 37° C. in THB. Subcultures in THB were subsequently grown to exponential phase (OD600˜0.3; i.e. 5×10^5 cfu/ml) at 37° C. Cell cultures were then exposed to different concentrations of antibiotics (Penicillin G, Ampicillin, Cefozolin or Vancomycin). […] Cell cultures were dispersed every 18 h before OD600 was measured to determine the lowest concentration of antibiotic with 90% growth inhibition (MIC90). Antibiotic treated cells (8 μl) from each well were re-suspended into PBS (100 μl) and plated (54 μl) on TS agar plates and allowed to grow for an additional 24 h at 37° C. Cell count was performed to determine the lowest concentration of antibiotic with 90% killing of original inoculums (MBC90). (III) Penicillin Killing and Regrowth Tolerance Assay by Microbroth Dilution. Three GBS laboratory strains (i.e., A909, NEM316, and O90R) were cultured overnight for 18 h at 37° C. in THB. Subcultures in THB were subsequently grown to exponential phase (OD600˜0.3) at 37° C. Cell cultures were then exposed to different concentrations of Penicillin G (Sigma, St. Louis, Mo.). […] Cell cultures were dispersed. A 1:20 dilution of cells was re-plated into new wells containing fresh THB with 500 U Penase (to degrade residual penicillin). Cell cultures were allowed to re-grow for an additional 24 h at 37° C. before the OD600 was measured. (IV) Measuring Cell Viability by Determining ATP Concentration. GBS strains were cultured for 18 h at 37° C. in THB. These cells were inoculated into fresh THB and subsequently allowed to grow to exponential phase (OD600 0.25-0.3) at 37° C. One ml of each culture was centrifuged at 5,000×g for 4 min. The cell pellet was re-suspended in ATP-free water. […]

[1] = Streptococcus, GBS strain 2603V/R
[2] = Streptococcus, GBS strain NEM316

In the case of `CC1(C)S[C@@H]2[C@H](NC(=O)Cc3ccccc3)C(=O)N2[C@H]1C(=O)O` [Penicillin G], the “Ratio (MBC90:MIC90)” value (GBS strain 2603V/R) is reported as 1, the Phenotype (GBS strain 2603V/R) is reported as “S (MBC:MIC ratio of ≦2:1)” and the Phenotype (GBS strain 2603V/R, listed as Penicillin) is reported as “Susceptible”. The “Ratio (MBC90:MIC90)” value (GBS strain A909) was 1, the Phenotype (GBS strain A909) was “S (MBC:MIC ratio of ≦2:1)” and the Phenotype (GBS strain A909, listed as Penicillin) was “Susceptible”. For the same molecule, the “Ratio (MBC90:MIC90)” value (GBS strain NEM316) was 8, the Phenotype (GBS strain NEM316) was “I (4:1-16:1)” and the Phenotype (GBS strain NEM316, listed as Penicillin) was “Intermediate”. For the same molecule, the “Ratio (MBC90:MIC90)” value (GBS strain O90R) was 32, the Phenotype (GBS strain O90R) was “PT (≧32:1)” and the Phenotype (GBS strain O90R, listed as Penicillin) was “Tolerant”. The MBC [1] was 0.06 µg/mL, the MBC (Streptococcus, GBS strain A909) was 0.06 µg/mL and the MBC [2] was 0.48 µg/mL. The MBC (Streptococcus, GBS strain O90R) was 3.84 µg/mL, the MIC [1] was 0.06 µg/mL and the MIC (Streptococcus, GBS strain A909) was 0.06 µg/mL. For the same molecule, the MIC [2] was 0.06 µg/mL, the MIC (Streptococcus, GBS strain O90R) was 0.12 µg/mL and the MIC90 (Streptococcus, for GBS, as stated under culture conditions) was 0.06 µg/mL.
